Values quoted from earlier work as cited in patent US5843995A, “Inhibition of HIV-1 replication using oligocarbamate derivatives” (University of Medicine and Dentistry of New Jersey, priority 1997, dated 1998).

System: HIV-1
Settings: cells pretreated with peptide 24 hours prior to infection

CC(=O)N[C@H](CCCNC(=N)N)C(=O)N[C@H](CCCNC(=N)N)C(=O)N[C@H](CCCNC(=N)N)C(=O)N[C@H](CCCNC(=N)N)C(=O)N[C@H](CCCNC(=N)N)C(=O)N[C@H](CCCNC(=N)N)C(=O)N[C@H](CCCNC(=N)N)C(=O)N[C@H](CCCNC(=N)N)C(=O)N[C@H](CCCNC(=N)N)C(N)=O [N-acetyl-(DArg)9 -NH2]
mechanism of antiviral activity: via inhibition of viral entry
